In US7064139B2, “Method for treating retroviral infections” (Uniroyal Chemical Company, Inc., priority 2001, dated 2006):
Values after ≈ are worked out from the molar mass of the structure shown.

Tests used:
Davis strain CMV = test: Reduction of CMV-induced cytopathicity in HEL cells; format: cell-based, human cytomegalovirus (HCMV); conditions: HEL cells; for EC50: Human betaherpesvirus 5, 168 h, read-out: Antiviral EC50 (ug/ml) Davis strain CMV; for EC50 / Antiviral EC50 (ug/ml) Davis strain CMV: virus-induced cytopathicity after seven days; for Antiviral % Inhibition Davis strain CMV: estimate of percent protection at the concentration in the previous column
Outline: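 Confluent HEL cells were infected with 100 PFU/well CMV for 1–2 h, then washed and kept in MEM with 2% FCS and test compound. EC50 is the concentration cutting virus-induced cytopathicity by 50% versus untreated control at day 7. Where cytotoxicity interfered, percent protection at the stated concentration is given.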

HIV-2 (ROD) = test: Inhibition of HIV-2 syncytium formation in CEM cells; format: cell-based; conditions: for EC50: Human immunodeficiency virus 2, CCRF-CEM, read-out: EC50 (ug/ml) HIV-2; for EC50 / EC50 (ug/ml) HIV-2: CEM cells, syncytium formation, day four post infection; for HIV-2 % Protection: protection of CEM cells against virus-induced cytopathicity at the concentration in the previous column
Outline: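 Human T-lymphoblast CEM cells, suspended at roughly 300,000 cells per ml of culture medium, were infected with about 100 CCID50 of HIV-2 (ROD). Aliquots of 100 μl of infected cells were placed in 200 μl microtiter wells holding 100 μl of serial 5-fold compound dilutions, and syncytium formation was scored microscopically four days after infection.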

HIV-1 (IIIB) = test: microbe, parasite or virus in culture; format: cell-based; conditions: for EC50: Human immunodeficiency virus 1, IIIB, CCRF-CEM, read-out: EC50 (ug/ml) HIV-1; for EC50 / EC50 (ug/ml) HIV-1: CEM cells, syncytium formation, day four post infection; for HIV-1 % Protection: protection of CEM cells against virus-induced cytopathicity at the concentration in the previous column
Outline: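 Human T-lymphoblast CEM cells at roughly 300,000 cells per ml were infected with about 100 CCID50 of HIV-1 (IIIB). Then 100 μl of the infected suspension went into 200 μl microtiter wells holding 100 μl of 5-fold serial compound dilutions. Inhibition of syncytium formation was scored microscopically on day four post infection, and protection against virus-induced cytopathicity was recorded.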

Compound	EC50 (Davis strain CMV) [µg/mL]	EC50 (HIV-2 (ROD)) [µg/mL]	HIV-2 % Protection (HIV-2 (ROD)) [%]	EC50 (HIV-1 (IIIB)) [µg/mL]	Antiviral % Inhibition Davis strain CMV (Davis strain CMV) [%]	Antiviral EC50 (ug/ml) Davis strain CMV (Davis strain CMV) [µg/mL]	EC50 (ug/ml) HIV-2 (HIV-2 (ROD))	EC50 (ug/ml) HIV-1 (HIV-1 (IIIB))	HIV-1 % Protection (HIV-1 (IIIB)) [%]
Cc1ccc(C)c(C(C)S(=O)(=O)c2c(C)ccc[n+]2[O-])c1 (stereo not shown) [Compound 71, 2-[1-(2,5-Dimethylphenyl)ethylsulfonyl]-3-methylpyridine N-oxide]	3.2 (≈ 10.5 µM)	> 20	0.0	0.05 (≈ 0.164 µM)	–	–	–	–	–
CCc1cccc2c(C)cc(S(=O)(=O)C(C)c3ccccc3)nc12 (stereo not shown) [Compound 107, 8-ethyl-4-methyl-2-[(1-phenylethyl)sulfonyl]-quinoline]	> 20	> 100	–	0.65 (≈ 1.91 µM)	0.0	–	–	–	–
COc1ccc(CS(=O)(=O)c2cccc[n+]2[O-])cc1 [Compound 19]	–	–	–	–	–	20.0	14.0 µg/mL (≈ 50.1 µM)	≧20 ug/ml	37.5
Cc1ccc(C)c(CS(=O)(=O)c2ccc(Cl)c[n+]2[O-])c1 [Compound 94]	–	–	–	–	–	12.0	2.6 µg/mL (≈ 8.34 µM)	1.90 µg/mL (≈ 6.09 µM)	–
COc1ccc(CS(=O)(=O)c2cccc[n+]2[O-])cc1OC [Compound 46]	–	–	–	–	40.0	>50	15.0 µg/mL (≈ 48.5 µM)	≧20 ug/ml	37.5
Cc1ccc(C)c(C(Cl)S(=O)(=O)c2cc(C)cc[n+]2[O-])c1 (stereo not shown) [Compound 74, 2-[(2,5-dimethylphenyl)chloromethylsulfonyl]-4-methylpyridine-1-oxide]	34.5 (≈ 106 µM)	> 100	0.0	0.42 (≈ 1.29 µM)	–	–	–	–	–
O=S(=O)(Cc1ccc(F)cc1)c1cccc[n+]1[O-] [Compound 29]	–	–	–	–	10.0	>20	7.0 µg/mL (≈ 26.2 µM)	11.00 µg/mL (≈ 41.2 µM)	–
Cc1ccc(C)c(C(Cl)S(=O)(=O)c2cccc(C)[n+]2[O-])c1 (stereo not shown) [Compound 73]	–	–	0.0	–	40.0	>20	>100.0 µg/mL	2.80 µg/mL (≈ 8.59 µM)	–
N#Cc1ccc(CS(=O)(=O)c2cccc[n+]2[O-])cc1 [Compound 34]	–	–	–	–	10.0	>20	10.0 µg/mL (≈ 36.5 µM)	9.00 µg/mL (≈ 32.8 µM)	–
Cc1ccc[n+]([O-])c1[S+]([O-])Cc1c(Cl)cccc1Cl (stereo not shown) [Compound 138]	–	–	0.0	–	20.0	>50	>100.0 µg/mL	>100 µg/mL	0.0
CC(C)c1ccc(C(C)C)c(C[S+]([O-])c2cccc[n+]2[O-])c1 (stereo not shown) [Compound 95]	–	–	37.5	–	–	4.1	≧4 ug/ml	>4 µg/mL	–
COc1ccc(C)cc1CSc1cccc[n+]1[O-] [Compound 93]	–	–	37.5	–	0.0	>50	≧20 ug/ml	8.00 µg/mL (≈ 30.6 µM)	–
COc1ccc(CSc2cc(CC(C)C)cc[n+]2[O-])cc1 [Compound 134]	–	–	0.0	–	–	50.0	>100.0 µg/mL	>20 µg/mL	0.0
COc1ccc(OC)c(CS(=O)(=O)c2cccc[n+]2[O-])c1 [Compound 47]	–	–	–	–	20.0	>50	35.0 µg/mL (≈ 113 µM)	10.00 µg/mL (≈ 32.3 µM)	–
[O-][n+]1cc(Cl)ccc1SCc1ccccc1 [Compound 151]	–	–	0.0	–	20.0	>20	>20.00 µg/mL	>20 µg/mL	0.0
